{
  "source": "patent EP2123285A1",
  "about": "“Nucleosidic phosphoantigens for use in VGAMMA9DELTA2 T cell-mediated therapy” (INSERM (Institut National de la Santé et de la Recherche …, priority 2008, dated 2009)",
  "key": {"[1]": {"test_system": "polyclonal Vγ9Vδ2 T cell line", "assay": "Degranulation assay for cytolytic function (CD107a), direct stimulation with soluble antigens", "type": "cell-based, human", "conditions": "for surface expression of CD107a (cytotoxicity machinery): soluble antigen, no enzyme added", "excerpt": "(§1) Brefeldin A was omitted. […] Cells were washed twice in FACS medium and stained for TCR-Vδ2. Data were acquired and analyzed as for proliferation assay. Results are expressed as the mean of triplicate microwell cultures +/-S.E.M."}, "apyrase": {"molecular_target": "T1, apyrase (Solanum tuberosum, UniProt P80595)", "T1 sequence (P80595 1-454)": "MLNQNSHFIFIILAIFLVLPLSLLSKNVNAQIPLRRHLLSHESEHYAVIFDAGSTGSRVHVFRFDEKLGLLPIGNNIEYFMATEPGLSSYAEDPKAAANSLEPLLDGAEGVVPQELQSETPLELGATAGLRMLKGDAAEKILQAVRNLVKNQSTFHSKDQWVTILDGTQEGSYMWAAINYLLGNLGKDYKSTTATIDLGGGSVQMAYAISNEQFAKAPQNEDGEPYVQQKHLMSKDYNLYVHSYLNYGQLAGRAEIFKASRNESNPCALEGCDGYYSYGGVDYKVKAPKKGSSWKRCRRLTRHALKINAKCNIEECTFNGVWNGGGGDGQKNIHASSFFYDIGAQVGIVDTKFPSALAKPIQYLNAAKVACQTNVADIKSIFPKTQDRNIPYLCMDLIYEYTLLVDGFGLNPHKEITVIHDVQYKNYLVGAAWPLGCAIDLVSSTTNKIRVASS", "assay": "HPLC analysis of sensitivity to apyrase", "type": "in vitro ADME", "conditions": "100µM, 0.2U/mL apyrase, 1h at 37°C in RPMI", "description": "Reaction mixes containing nucleosidic compounds were adjusted to 200µL with water and products were separated by HPLC (System Gold, Beckman Coulter) on a PL-SAX anion exchange column (1000Å, 5µm, 50x4.6mm from Polymer Labs Varian, Marseille, France) using water (A) and 1M (NH4)2HPO4, pH 3.5 (B) and the following elution gradient: 0-1 min: 0% B; 1-11 min: 0% to 30% B; 11-13 min: 100% B; 13-19min: 0% B. Eluted nucleotides were detected by monitoring UV absorbance at 260nm. In these conditions, adenosine and AMP are not retained on the column and are detected with the elution front. To evaluate phosphatase sensitivity, ApppI and ATP (100µM final concentration) were incubated for 1h at 37°C in 20µL RPMI in the presence of 0.2U/mL apyrase or 0.02U/mL nucleotide pyrophosphatase before analysis."}, "[2]": {"test_system": "polyclonal Vγ9Vδ2 T cell line", "assay": "Degranulation assay (CD107a) with tumor cell lines as presenting or pulsed cells", "type": "cell-based, human", "conditions": "for stimulatory activity of pulsed 721.221 cells: 721.221 cell line; for pulsing of RPMI-8226 cells: 2h, 10µM; for sensitivity of stimulation by pulsed cells to apyrase and pyrophosphatase: Daudi or K562 cells pulsed overnight (pamidronate 50µM, ApppI 20µM), apyrase 0.2U/mL, NPP 0.02U/mL, alone or in combination"}, "Vγ9Vδ2 T cells [3]": {"test_system": "Vγ9Vδ2 T cells", "assay": "Intracellular cytokine staining (IFNγ)", "type": "cell-based, human"}, "[4]": {"molecular_target": "T2, F1-ATPase purified from bovine heart mitochondria (Bos taurus, UniProt P00829+P19483)", "T2 construct": "F1-ATPase purified from bovine heart mitochondria; from tissue; host or cells: bovine heart mitochondria", "assay": "F1-ATPase activity, kinetics of ADP production (lactate dehydrogenase/pyruvate kinase assay)", "type": "biochemical", "conditions": "100 µM ApppI, low ATP concentrations", "description": "(§2) F1-ATPase complexes were recovered from ammonium sulfate precipitates by centrifugation (17000g, 3min) and dissolved in ATPase assay buffer (10mM HEPES, 150mM NaCl, 5mM KCl, 2mM MgCl2, pH 7.5). ATP and ADP were measured using two different assays. For ATP measurements, a bioluminescence assay was used: 100ng F1-ATPase were incubated at room temperature in 50µL of ATPase assay buffer containing 1µM ATP and the indicated apyrase-treated ApppI concentrations in white 96 wells plates. After 5 minutes, 30µL of reconstituted luciferase from the ATP CLSII Kit (Roche) were added and luminescence was acquired on an Orion luminometer (Berthold Detection Systems). The kinetics of ADP production resulting from ATP hydrolysis was measured using the lactate dehydrogenase/pyruvate kinase assay and was adapted from Gledhill, J.R. et al., Biochem J 386, 591-598, 2005: 2µg F1-ATPase were incubated in 200µL of ATPase assay buffer supplemented with phosphoenol pyruvate (500µM), NADH (250µM), lactate dehydrogenase (LDH, 1U) and pyruvate kinase (PK, 5U), with the indicated ATP concentrations and with or without 100µM apyrase-treated ApppI. OD340nm was measured during 2 minutes (with one measurement every 10 seconds) on a Varioskan Flash spectrophotometer (Thermo Electron Corporation). The initial hydrolysis rate (V0) was calculated from a linear regression of the data. […]"}, "Vγ9Vδ2 T cells [5]": {"test_system": "Vγ9Vδ2 T cells", "assay": "Proliferation assay: Vγ9Vδ2 T cell expansion from PBL stimulated with phosphoantigen plus IL-2", "type": "cell-based, human"}, "[6]": {"molecular_target": "T3, bovine F1-ATPase (in the form of F1Fo complexes) (Bos taurus, UniProt P00829+P19483)", "T3 construct": "from tissue", "assay": "Pulsing on F1Fo-coated beads and subsequent T cell activation (CD107a)", "type": "binding", "description": "as §1\nFor immobilization on beads, solubilized F1Fo complexes were diluted to 1/3000 (5µg/mL) in 1 ml of PBS and incubated with 10^7 6µm polystyrene beads (Biovalley, Marne-la-Vallée, France) for 4h at room temperature on a rotating wheel. Beads were then pelleted by centrifugation (2min, 12000g), washed and incubated in 1mL of 1% BSA in PBS overnight, washed once with PBS and kept for several days at 4°C in PBS containing 1% BSA. Beads were used in stimulation assays as cultured cell lines. Control beads were prepared similarly except that F1Fo was replaced by BSA. In some experiments the beads were loaded with phosphoantigens: to this end, after washing a suitable aliquot, beads were incubated with ApppI or IPP (50µM) for 2 hours at 37°C in complete SFM medium, washed extensively, and used for Vγ9Vδ2 T cells stimulation. In phosphatase sensitivity assays (Fig.8) NPP or control medium were added to the beads in microculture wells 30min before pulsing the beads or addition of T cells. The beads were then washed and T cells were added with or without supplementation with the same phosphatases. T cell activation was evaluated as described above."}, "Vγ9Vδ2 T cells [7]": {"test_system": "Vγ9Vδ2 T cells", "assay": "Single cell analysis of calcium mobilization", "type": "cell-based, human", "conditions": "ApppI-loaded, F1-coated beads"}, "[8]": {"molecular_target": "nucleotide pyrophosphatase (Crotalus adamanteus, UniProt J3SEZ3)"}, "[9]": {"molecular_target": "T2, F1-ATPase purified from bovine heart mitochondria", "assay": "F1-ATPase activity, ATP bioluminescence assay", "type": "biochemical", "conditions": "1µM ATP, 5min, ApppI added in the reaction mixture", "description": "as §2"}},
  "note": "Entries after “also recorded” stand apart in the source; their conditions may differ. Like-named read-outs stand apart in the source and are kept apart here.",
  "data": [
    {"smiles": "Nc1ncnc2c1ncn2[C@@H]1O[C@H](COP(=O)(O)OP(=O)(O)O)[C@@H](O)[C@H]1O", "note": "[ADP]", "values": [
      {"measurement": "effect on T cell stimulations", "setting": "[1]; data not shown", "value": "no effect"}
    ]},
    {"smiles": "Nc1ncnc2c1ncn2[C@@H]1O[C@H](COP(=O)(O)OP(=O)(O)OP(=O)(O)O)[C@@H](O)[C@H]1O", "note": "[ATP, reference compound]", "values": [
      {"measurement": "HPLC profile after apyrase treatment", "setting": "apyrase", "value": "completely hydrolyzed"}
    ]},
    {"smiles": "C=C(C)CCOP(=O)(O)OP(=O)(O)OP(=O)(O)OC[C@H]1O[C@@H](n2cnc3c(N)ncnc32)[C@H](O)[C@@H]1O", "note": "[ApppI, 1-(adenosin-5'-yl) 3-(3-methylbut-3-enyl) triphosphoric diester]", "values": [
      {"measurement": "stimulatory activity of pulsed 721.221 cells", "setting": "[2]", "value": "cannot be significantly pulsed; also recorded: poorly stimulatory"},
      {"measurement": "pulsing of RPMI-8226 cells", "setting": "[2]; 4°C", "value": "abrogated"},
      {"measurement": "pulsing of RPMI-8226 cells", "setting": "[2]; 37°C", "value": "sufficient to confer stable stimulatory activity"},
      {"measurement": "pulsing of RPMI-8226 cells", "setting": "[2]; 37°C after 2h pre-treatment with cytochalasin D (10µM)", "value": "abrogated"},
      {"measurement": "sensitivity of stimulation by pulsed cells to apyrase and pyrophosphatase", "setting": "[2]", "value": "completely resistant"},
      {"measurement": "stimulation by combination of RPMI-8226 cells and phosphoantigen", "setting": "[2]; RPMI-8226 cells 1:1 ratio plus soluble antigen", "value": "synergistic activation"},
      {"measurement": "stimulatory activity retained on pulsed tumor cells after extensive washing", "setting": "[2]; tumor cell lines pulsed overnight, compared to tumor cells not washed", "value": 70, "unit": "%"},
      {"measurement": "HPLC profile after apyrase treatment", "setting": "apyrase", "value": "did not change its HPLC profile"},
      {"measurement": "effect of ApppI added to IPP on the IPP response", "setting": "Vγ9Vδ2 T cells [3]; IPP (10µM) plus ApppI at varying concentrations", "value": "does not compete with IPP"},
      {"measurement": "induction of intracellular IFN-γ production", "setting": "Vγ9Vδ2 T cells [3]; PBL stimulation", "value": "could induce"},
      {"measurement": "higher concentration required for a similar cytokine response", "setting": "Vγ9Vδ2 T cells [3]; relative to IPP, intracellular IFNγ", "value": "50-100 fold"},
      {"measurement": "initial rate of ADP production relative to the rate in the absence of ApppI", "setting": "[4]", "value": "approximately twice"},
      {"measurement": "effect of exogenous NPP on stimulatory activity", "setting": "[1]; NPP 0.02U/mL added to the T cell stimulation assay", "value": "greatly increased"},
      {"measurement": "effect of apyrase on stimulatory activity", "setting": "[1]; apyrase 0.2U/mL, antigen 10µM", "value": "abrogates completely"},
      {"measurement": "surface expression of CD107a (cytotoxicity machinery)", "setting": "[1]", "value": "less bioactive than IPP itself"},
      {"measurement": "homogeneity of the culture (Vγ9Vδ2 T cells)", "setting": "Vγ9Vδ2 T cells [5]; 5 µM", "value": "~94", "unit": "%"},
      {"measurement": "induction of proliferation", "setting": "Vγ9Vδ2 T cells [5]; PBL stimulation", "value": "could induce"},
      {"measurement": "higher molar concentration required for a similar effect on Vγ9Vδ2 T cell expansion from PBLs", "setting": "Vγ9Vδ2 T cells [5]; relative to IPP, 1 week after PBL stimulation", "value": "5-10 fold"},
      {"measurement": "stimulatory activity of loaded F1-ATPase-coated beads", "setting": "[6]; ApppI treated with NPP before pulsing on beads", "value": "no activity is retained"},
      {"measurement": "stimulatory activity of loaded F1-ATPase-coated beads", "setting": "[6]; NPP 0.02U/mL added in the T cell stimulation assay", "value": "a strong stimulatory activity can be revealed"},
      {"measurement": "stimulatory activity of loaded F1-ATPase-coated beads", "setting": "[6]; beads incubated with 50µM antigen for 2h, washed, no NPP", "value": "confers some additional stimulatory activity"},
      {"measurement": "stimulatory activity of loaded F1-ATPase-coated beads", "setting": "[6]; beads treated with NPP after pulsing, then washed", "value": "retain an activity identical to that of beads which have not been treated with NPP"},
      {"measurement": "intracellular calcium mobilization", "setting": "Vγ9Vδ2 T cells [7]; NPP 0.02U/mL added after contact", "value": "slow but strong and sustained calcium response"},
      {"measurement": "intracellular calcium mobilization", "setting": "Vγ9Vδ2 T cells [7]; no NPP", "value": "clear activation in few cells only"},
      {"measurement": "hydrolysis by NPP (HPLC)", "setting": "[8]", "value": "can be hydrolyzed"},
      {"measurement": "increase of the amount of ATP hydrolyzed by the complex", "setting": "[9]", "value": "two-fold"}
    ]},
    {"smiles": "C=C(C)CCO[P@@](=O)(O)OP(=O)(O)O", "note": "[IPP, isopentenyl pyrophosphate, reference compound]", "values": [
      {"measurement": "stimulatory activity retained on pulsed tumor cells after extensive washing", "setting": "[2]", "value": "less than 20%"},
      {"measurement": "surface expression of CD107a (cytotoxicity machinery)", "setting": "[1]", "value": "stronger stimulation"}
    ]},
    {"smiles": "Cc1nc(N=Nc2ccc(S(=O)(=O)O)cc2S(=O)(=O)O)c(COP(=O)(O)O)c(C=O)c1O", "note": "[PPADS, pyridoxal phosphate-6-azophenyl-2',4'-disulfonic acid]", "values": [
      {"measurement": "effect on ApppI stimulatory activity", "setting": "[1]; PPADS added to ApppI stimulation", "value": "inhibition"},
      {"measurement": "effect on IPP stimulatory activity", "setting": "[1]; PPADS added to IPP stimulation", "value": "partially decreases"}
    ]},
    {"smiles": "CC[C@H](C)C(=O)O[C@H]1C[C@@H](C)C=C2C=C[C@H](C)[C@H](CC[C@@H]3C[C@@H](O)CC(=O)O3)[C@H]21", "note": "[lovastatin, reference compound]", "values": [
      {"measurement": "effect on stimulatory activity induced by pulsing with ApppI", "setting": "[2]; K562 cells, lovastatin 20µM, ApppI 20µM, overnight", "value": "does not inhibit"},
      {"measurement": "effect on stimulatory activity induced by pamidronate", "setting": "[2]; K562 cells, lovastatin 20µM, pamidronate 50µM, overnight", "value": "efficiently abrogates"}
    ]},
    {"smiles": "NCCC(O)(P(=O)(O)O)P(=O)(O)O", "note": "[pamidronate, reference compound]", "values": [
      {"measurement": "stimulatory activity of pulsed 721.221 cells", "setting": "[2]", "value": "poorly stimulatory"},
      {"measurement": "sensitivity of stimulation by pulsed cells to apyrase and pyrophosphatase", "setting": "[2]", "value": "completely resistant"}
    ]}
  ]
}
